Experimental data published in patent publication US20120202885A1, “METHODS, ASSAYS AND COMPOSITIONS FOR TREATING RETINOL-RELATED DISEASES” (ReVision Therapeutics, Inc., priority 2004, published 2012).

How the values were obtained:
[1] = molecular target: retinol-RBP-TTR complex (Homo sapiens, UniProt P02753); experiment: High-throughput FRET assay for RBP/TTR interaction; assay type: binding
From the text: Reduction of serum retinol and RBP are correlated with concomitant reductions in toxic lipofuscin fluorophores. Because compounds that affect RBP-TTR interaction will directly affect fluorophore levels in the eye, a high-throughput screen for small molecules which prevent interaction of RBP with TTR was developed. This screen employs probe-labeled forms of RBP and TTR which participate in a unique fluorescence resonance energy transfer (FRET) event when complexed. Compounds which interfere with RBP-TTR interaction prevent FRET. Sample spectra taken during the course of this type of assay are shown, in FIG. 4. […] The sample is incubated at 37° C. for 30 min and then illuminated with 330 nm light. The emission spectra are shown in the range of 400-600 nm. HPR binds to RBP and prevents interaction with TTR, and here this property of HPR is utilized here to validate the ability of this screen to detect inhibition of RBP-TTR interaction. […] Additionally, the design of this assay permits discrimination between compounds which interact with RBP versus those which interact with TTR. Thus, by using two distinct excitation energies (280 nm and 330 nm, for protein and retinol, respectively) and implementing simultaneous monitoring of the retinol and TTR-probe fluorescence, the “target” of a presumptive small molecule can be easily determined.
Accordingly, HPR was employed at varied concentrations (from 0-4 μM), using the conditions specified in Example 7, to evaluate the high throughput assay.
The mechanism of action underlying this effect can be explained by the disruption of RBP-TTR interactions. In order to explore this possibility and to further validate the RBP-TTR screen, the effects of all-trans retinoic and 13-cis retinoic acid, using the conditions the conditions specified for analysis of HPR, were examined.

[2] = 14-day HPR dose response on serum retinol (LC/MS of serum extract); assay type: in vivo, mice; details: abca4 null mutant, mouse, serum, intraperitoneal; 20 mg/kg HPR; read-out: steady state concentration of HPR in serum
Procedure: (§1) Initial studies began by examining the effect of HPR on serum retinol. Animals were divided into three groups and given either DMSO, 10 mg/kg HPR, or 20 mg/kg HPR for 14 days. At the end of the study period, blood was collected from the animals, sera were prepared and an acetonitrile extract of the serum was analyzed by reverse phase LC/MS. UV-visible spectral and mass/charge analyses were performed to confirm the identity of the eluted peaks. Sample chromatograms obtained from these analyses are shown: FIG. 7a.—extract from an abca4 null mutant mouse receiving HPR vehicle, DMSO; FIG. 7b.—10 mg/kg HPR; FIG. 7c.—20 mg/kg HPR. […] For 20 mg/kg HPR, serum retinol is decreased 72%, see FIG. 8. The steady state concentrations of retinol and HPR in serum (at 20 mg/kg HPR) were determined to be 2.11 μM and 1.75 μM, respectively.

[3] = test system: abca4 null mutant mouse; experiment: as above; assay type: in vivo, mice; details: DMSO, 10 or 20 mg/kg HPR, 14 days
Procedure: as §1

[4] = molecular target: Retinol Binding Protein (RBP) (Homo sapiens, UniProt P02753); experiment: Fluorescence quenching study of MPR binding to retinol binding protein; details: 1 μM ligand, 0.5 μM Apo-RBP
Procedure: Apo-RBP at 0.5 μM was incubated with 0, 0.25, 0.5, 1 and 2 μM of MPR in PBS at room temperature for 1 hour, respectively. As controls, the same concentration of Apo-RBP was also incubated with 1 μM of HPR or 1 μM of atROL. All mixtures contained 0.2% Ethanol (v/v). The emission spectra were measured between 290 nm to 550 nm with excitation wavelength at 280 nm and 3 nm bandpass.

[5] = test system: ABCA4 null mutant mice; experiment: 28-day HPR dose study: serum retinol, A2PE-H2, A2E, retinoids, retinal physiology and histology; assay type: in vivo
Procedure: ABCA4 null mutant mice were given the indicated dose of HPR in DMSO (i.p.) daily for 28 days (n=4 mice per dosage group). At the end of the study period, blood samples were taken and serum was prepared. Following acetonitrile precipitation of serum proteins, the concentrations of retinol and HPR were determined from the soluble phase by LC/MS (see FIG. 8). Identity of the eluted compounds was confirmed by UV-vis absorption spectroscopy and co-elution of sample peaks with authentic standards.
Group averages from the data shown in panels A-G of FIG. 13 in Example 25 (28 day time points) are plotted to illustrate the strong correlation between increases in serum HPR and decreases in serum retinol (see FIG. 14). Reductions in serum retinol are highly correlated with reductions in A2E and precursor compounds (A2PE-H2). A pronounced reduction in A2PE-H2 in the 2.5 mg/kg dosage group (−47%) is observed when the serum retinol reduction is only 20%. The reason for this disproportionate reduction is related to the inherently lower ocular retinoid content in this group of 2-month old animals compared to the other groups. It is likely that if these animals had been maintained on the 2.5 mg/kg dose for a more prolonged period, a greater reduction in A2E would also be realized.
Panels D-F of FIG. 15 are electrophysiological measurements of rod function (panel D), rod and cone function (panel E) and recovery from photobleaching (panel F).
ABCA4 null mutant mice were given the indicated dose of HPR in DMSO or DMSO alone daily for 28 days (n=16 mice per treatment group). At study onset, mice in the 2.5 mg/kg group were 2 months of age, mice in the other treatment groups were 3 months of age. At the indicated times, representative mice were taken from each group (n=4) for analysis of A2E precursor compounds (see FIG. 13, A2PE-H2, panels A, C and E) and A2E (see FIG. 13, panels B, D and F). Eyes were enucleated, hemisected and lipid soluble components were extracted from the posterior pole by chloroform/methanol-water phase partitioning. Sample extracts were analyzed by LC. Identity of the eluted compounds was confirmed by UV-vis absorption spectroscopy and co-elution of sample peaks with authentic standards. Note: limitations in appropriately age and strain-matched mice in the 10 mg/kg group prevented analysis at the 14-day interval.
Treatment conditions are as described above.

[6] = molecular target: interaction of TTR with RBP (Homo sapiens, UniProt P02753); details: Malpeli et al., Holven et al.; cited from earlier work

- inhibition of retinol-RBP-TTR complex formation ([1]; varied concentrations 0-4 μM, FIG. 5): dose dependent inhibition
- concentration at 14 days [2]: 1750 nM
- binding to RBP [4]: bind to RBP
- electrophysiology: recovery from photobleaching ([5]; 10 mg/kg daily for 28 days): delayed dark adaptation
SMILES: CC1=C(/C=C/C(C)=C/C=C/C(C)=C/C(=O)Nc2ccc(O)cc2)C(C)(C)CCC1 [HPR, N-(4-hydroxyphenyl)retinamide]
- retinol and TTR-probe fluorescence (loss of RBP-TTR complexation) ([1]; HPR 1 μM, 0.5 μM RBP + 0.5 μM Alexa430-TTR, 37° C. 30 min, 330 nm excitation): significantly reduced retinol and TTR-probe fluorescence
- serum retinol, dose dependence [3]: dose-dependent reduction in serum retinol
- reduction in A2PE-H2 ([5]; 2.5 mg/kg dosage group, 28 days): −47%
- regeneration of visual chromophore ([5]; 10 mg/kg daily for 28 days): does not affect regeneration of visual chromophore
- retinal morphology by light microscopy ([5]; 28 days): No aberrant morphology or compromise of the integrity in retinal cyto structure was observed
- level of autofluorescence versus wild type ([5]; abcr null mutant mice, 28 days): comparable to that of an age-matched wild-type animal
- lipofuscin autofluorescence in the RPE ([5]; abcr null mutant mice, 28 days): significantly reduces lipofuscin autofluorescence
- A2PE-H2 and A2E during the study period ([5]; indicated doses daily for 28 days): dose-dependent reductions
- serum retinol ([5]; summary statement): potently and reversibly reduces serum retinol
- interaction of TTR with RBP [6]: interferes with the normal interaction of TTR with RBP
